Measurements as given in PMC3927586, “Protein kinase C-delta inactivation inhibits the proliferation and survival of cancer stem cells in culture and in vivo” (BMC Cancer, 2014).
Where “and” joins values, the source holds several entries; their conditions need not be identical. Equal entries are not always repeated. Where two headings read alike, the source gives them in different places.

Assays:
MCF7 spheroids = assay: Tumor spheroid formation, MCF7; format: cell-based; conditions: Homo sapiens, 96 hr, read-out: inhibition of growth of MCF7 spheroids
Description: (§1) Tumor self-renewing and anchorage-independent spheroids were obtained by culturing breast cancer cells MCF7, Hs587T and MDA231; melanoma cells SBcl2 and FM6; human breast cancer stem cells and pancreatic cancer stem cells in stem cell-selective conditions according to the manufacturer’s instructions (StemCell Technologies, Tukwila, WA). Briefly, cancer and cancer stem cells were propagated in 6-well ultra-low adherent plates (Corning) in Complete MammoCult Medium (Human) by adding 50 mL of MammoCult Proliferation Supplements to 450 mL of MammoCult Basal Medium (StemCell Technologies). The following were added to obtain Complete MammoCult Medium: 4 ug/mL Heparin (StemCell Technologies), 0.48 μg/mL hydrocortisone (StemCell Technologies), 200 U penicillin/ml; and 200 μg streptomycin/ml (Invitrogen).
(§2) Figure 4 Effects of PKCδ inhibitors on human tumor cell spheroid formation. […] Tumor spheroids and adherent cells were collected at 96 hr, stained for CD24 and CD44, and analyzed by flow cytometry. […] After 24, 48 and 72 hr of exposure, cell mass was evaluated by MTT assay. […] Viable cells were enumerated and re-plated in media without BJE6-206, and spheroid numbers were quantitated 96 hr later. p values for comparison between vehicle and BJE6-106 effects on spheroid number were significant after 6 hr of exposure (p≤0.02), and remained significant at all time points thereafter. […]

[1] = system: breast cancer stem cells (BCSC); assay: Tumor spheroid formation, BCSC; format: cell-based, human; conditions: added to culture medium, 96 hr, p≤0.001
Description: as §1, §2

[2] = system: pancreatic cancer stem cells (PCSC); assay: Tumor spheroid formation, PCSC; format: cell-based, human; conditions: added to culture medium, 96 hr, p≤0.001
Description: as §1, §2

recombinant PKCδ = biological target: T1, recombinant PKCδ (Homo sapiens, UniProt Q05655); assay: PKC kinase activity assay (Z-lyte), PKCδ; format: biochemical; conditions: for PKCδ/PKCα Selectivity ratio: PKCδ versus PKCα in vitro
T1 construct: purchased Invitrogen
T1 sequence (Q05655 whole entry): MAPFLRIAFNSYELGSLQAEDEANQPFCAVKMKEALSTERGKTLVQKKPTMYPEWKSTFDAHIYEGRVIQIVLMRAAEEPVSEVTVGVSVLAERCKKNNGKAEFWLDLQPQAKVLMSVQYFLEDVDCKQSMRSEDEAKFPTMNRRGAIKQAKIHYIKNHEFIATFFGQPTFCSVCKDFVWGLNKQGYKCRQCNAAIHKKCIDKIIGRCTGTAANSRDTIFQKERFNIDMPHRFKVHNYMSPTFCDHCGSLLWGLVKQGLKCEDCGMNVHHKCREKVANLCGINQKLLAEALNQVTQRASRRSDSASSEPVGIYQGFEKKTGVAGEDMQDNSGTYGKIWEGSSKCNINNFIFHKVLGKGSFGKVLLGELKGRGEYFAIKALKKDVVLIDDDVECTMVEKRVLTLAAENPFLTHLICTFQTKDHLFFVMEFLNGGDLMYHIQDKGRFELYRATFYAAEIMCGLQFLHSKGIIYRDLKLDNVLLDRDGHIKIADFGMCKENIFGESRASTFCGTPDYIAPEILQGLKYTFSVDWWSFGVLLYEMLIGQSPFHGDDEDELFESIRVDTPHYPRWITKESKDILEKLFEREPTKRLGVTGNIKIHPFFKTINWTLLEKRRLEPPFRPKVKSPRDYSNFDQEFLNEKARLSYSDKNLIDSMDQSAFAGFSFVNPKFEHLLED
Description: (§3) Assays were carried out using recombinant PKCδ or PKCα, (Invitrogen) and the Z-lyte Kinase Assays (Invitrogen) with a “PKC-kinase-specific” peptide substrate. FRET interactions produce a change in fluorescence (ex455/ex520) upon phosphorylation. The kit was used according to the manufacturer’s instructions.

MCF 10C cells = assay: Cell proliferation (MTT) of transformed breast epithelial cells; format: cell-based, human; conditions: for IC50: Homo sapiens, Epithelial cell, 72 hr, read-out: IC50 for the MCF 10C derivative; for concentration with significant effect on MCF 10C cells: as early as 24 hr
Description: (§4) Cell proliferation was assessed using an MTT [3-(4,5-dimethylthiazol-2-yl)-2,5-diphenyltetrazolium bromide] assay (Roche, Mannheim, Germany). The number of viable cells growing in a single well on a 96-well microtiter plate was estimated by adding 10 μl of MTT solution (5 mg/ml in phosphate-buffered saline [PBS]). After 4 h of incubation at 37°C, the stain was diluted with 100 μl of dimethyl sulfoxide. The optical densities were quantified at a test wavelength of 570 nm and a reference wavelength of 690 nm on a multiwell spectrophotometer. In some assays, MTS was used as substrate (Promega, Madison, WI), and the absorbance of the product was monitored at 490 nm. Cell enumeration was carried out using a hemocytometer, and viable cells identified by trypan blue exclusion.
Figure 5 Effects of PKCδ inhibitors on growth and spheroid formation in non-transformed and transformed human breast epithelial cells. MCF 10A cells and cells from the derived tumorigenic line MCF 10C (also called M3), were grown to 80% confluence in 96-well plates and then exposed to rottlerin at concentrations ranging from 1 to 20 μM (A) or to BJE6-106 at concentrations ranging from 0.1 to 20 μM (B). The corresponding equivalent volume of solvent (DMSO) was used as a vehicle control (Vehicle). After 24, 48 and 72 hr of exposure, cell mass was evaluated by MTT assay. Control (vehicle) values were normalized to 100%. Error bars represent SEM. p values for comparison between vehicle and PKCδ inhibitors on MCF 10A cell number only reached significance (p < 0.05) at 48 hr at 20 μM for rottlerin, and at 1 μM for BJE6-106. In contrast, significant effects of the inhibitors on the MCF 10C cells were observed as early as 24 hr for rottlerin (at 5 μM) and for BJE6-106 (at 0.1 μM). (C) MCF 10A and MCF 10C cells were plated at 10,000 cells per well in tumor spheroid media, and spheroid formation was assessed at days 10 and 21. Representative photographs are shown. (D) MCF 10C cells were plated at 10,000 cells per well in tumor spheroid media, in the presence of rottlerin (5 μM), or BJE6-106 (1 μM or 5 μM), or DMSO vehicle (Control). Tumor spheroids were enumerated at 10 days. Representative photographs are shown. (E) Spheroid numbers were normalized to the number of spheroids in the control cultures (assigned an arbitrary value of 100%) and plotted. Error bars represent SEM. p values for comparison between vehicle and rottlerin or BJE6-106 effects on spheroid number were significant (p < 0.001).

FN5 = assay: Tumor spheroid growth, FN5 melanoma; format: cell-based, human; conditions: p < 0.001
MCF7 cells = assay: Cell proliferation (MTT) of adherent MCF7 cells; format: cell-based, human; conditions: for concentration at which effect on cell number reached significance: MCF7, MTT, 24 hr, p ≤ 0.02; for concentration required to repress growth by more than 80%: MCF7 adherent population, MTT
Description: as §4
Figure 4 Effects of PKCδ inhibitors on human tumor cell spheroid formation. (A) Hs578T and MCF7 were plated under adherent or non-adherent conditions. Tumor spheroids and adherent cells were collected at 96 hr, stained for CD24 and CD44, and analyzed by flow cytometry. (B) Hs578T, MCF7, breast cancer stem cells (BCSC) and pancreatic cancer stem cells (PCSC) were plated in tumor spheroid media, in the presence of rottlerin, BJE6-106, or DMSO (Control). Tumor spheroids were enumerated at 96 hr, and normalized to the number of spheroids in the control cultures (assigned an arbitrary value of 100%). p values for comparison between vehicle and rottlerin or BJE6-106 effects were significant (p≤0.001). Photographs are of representative areas of the culture plates. (C) MCF7 cells were exposed BJE6-106 or to rottlerin at the indicated concentrations. The corresponding equivalent volume of solvent (DMSO) was used as a vehicle control (Vehicle). After 24, 48 and 72 hr of exposure, cell mass was evaluated by MTT assay. Control values were normalized to 100%. p values for comparison between vehicle and rottlerin effects on cell number at 24 hr reached significance at 5 μM, and for BJE6-106 at 0.5 μM (p ≤ 0.02), and were significant for all concentrations tested at 48 and 72 hr time points. (D) Hs578T cells were exposed to vehicle or BJE6-106 (1 μM) for 6, 12, 24, 48 or 96 hr. Viable cells were enumerated and re-plated in media without BJE6-206, and spheroid numbers were quantitated 96 hr later. p values for comparison between vehicle and BJE6-106 effects on spheroid number were significant after 6 hr of exposure (p≤0.02), and remained significant at all time points thereafter. Error bars represent SEM.

recombinant PKCα = biological target: T2, recombinant PKCα (Homo sapiens, UniProt P17252); assay: PKC kinase activity assay (Z-lyte), PKCα; format: biochemical
T2 construct: purchased Invitrogen
Description: as §3

Panc1 = assay: Tumor spheroid growth, Panc1 pancreatic cancer; format: cell-based, human; conditions: p < 0.001
DU145 = assay: Tumor spheroid growth, DU145 prostate cancer; format: cell-based, human; conditions: p < 0.001
[3] = in vitro kinase assay, read-out: PKCδ IC50

SMILES: CC1(C)C=Cc2cc(CCn3c4ccccc4c4ccccc43)cc(C=O)c2O1 [BJE6-106, 6-(2-(9H-carbazol-9-yl)ethyl)-2,2-dimethyl-2H-chromene-8-carbaldehyde]
- inhibition at 1 µM (MCF7 spheroids; BJE6-106 at 1 μM): > 90%
- effect on formation of spheroids, BCSC [1]: very efficiently inhibited
- effect on formation of spheroids, PCSC [2]: very efficiently inhibited
- PKCδ/PKCα Selectivity ratio (recombinant PKCδ): approximately 1000 fold
- PKCδ/PKCα Selectivity ratio (recombinant PKCδ; listed as 3): 1000-fold
- IC50 (recombinant PKCδ; [3]): ~50 nM and 50 nM
- IC50 (MCF 10C cells): ~100 nM
- concentration with significant effect on MCF 10C cells (MCF 10C cells): 0.1 µM
- inhibition of tumor spheroid growth, FN5 (FN5; BJE6-106 at 0.5-1.0 μM): > 99.5%
- concentration at which effect on cell number reached significance (MCF7 cells): 0.5 µM
- concentration required to repress growth by more than 80% (MCF7 cells): > 1 µM
- IC50 (recombinant PKCα; in vitro kinase assay, read-out: PKCα IC50): 50000 nM
- inhibition of tumor spheroid growth, Panc1 (Panc1; BJE6-106 at 0.5-1.0 μM): > 99%
- inhibition of tumor spheroid growth, DU145 (DU145; BJE6-106 at 0.5-1.0 μM): > 98%

SMILES: CC(=O)c1c(O)c(C)c(O)c(Cc2c(O)c3c(c(C(=O)/C=C/c4ccccc4)c2O)OC(C)(C)C=C3)c1O [rottlerin, Rottlerin, reference compound]
- inhibition at 10 µM (MCF7 spheroids; rottlerin at 10 μM): > 90%
- effect on formation of spheroids, BCSC [1]: very efficiently inhibited
- effect on formation of spheroids, PCSC [2]: very efficiently inhibited
- IC50 (recombinant PKCδ; PKCδ IC50, in vitro kinase assay): ~5000 nM
- IC50 (recombinant PKCδ; [3]): 3000 nM
- IC50 (MCF 10C cells): ~1000 nM
- concentration with significant effect on MCF 10C cells (MCF 10C cells): 5 µM
- inhibition at 10 µM (FN5; Homo sapiens, rottlerin at 10 μM): > 99.5%
- concentration at which effect on cell number reached significance (MCF7 cells): 5 µM
- concentration required to repress growth by more than 80% (MCF7 cells): > 10 µM
- IC50 (recombinant PKCα): 75000 nM
- inhibition at 10 µM (Panc1; Homo sapiens, PANC-1, rottlerin at 10 μM): > 99%
- inhibition at 10 µM (DU145; Homo sapiens, DU-145, rottlerin at 10 μM): > 98%
